Experimental data as given in patent publication US20120171396A1, “Drug suspension agent and method of manufacture thereof” (Beijing Zhongwei Shennong Chronic Desease Medicine Academe …, priority 2009, published 2012).

Tests used:
hyperuricemia mice = assay: Pharmacodynamic test of hyperuricemia; format: in vivo
Experimental: Kunming male mice, weighing 24±2 g, are randomly divided into several groups, use i, g, once every day for 4 days, wherein the dosages administered to the saline group and the hyperuricemia model blank group are […] every day. IP potassium oxide hydrochloride for every hyperuricemia model blank group at 2 hours before blood sampling, and IP potassium oxide hydrochloride for test model group at 1 hour before the last using. At 2 hours after the last using, sample blood from the venous plexus behind the animal orbit to test the serum uric acid level.

Kunming mice = assay: Pharmacodynamic test of the cough-relieving effect (ammonia-induced cough); format: in vivo; details: 1 hour after administering, control: codeine phosphate 4 mg/kg by gavage, test: hung
Experimental: 60 kunming mice, in half respectively male and female and weighing from 18 g to 20 g, are randomly divided into 5 groups based on the weight, each group comprises 12 rice. […] suspension agent is hung in the test group. Codeine phosphate with a dosage of 4 mg/kg is administered to the control group by gavage.
For the above two groups, at 1 hour after administering, absorb 0.2 ml ammonia (with a concentration of 25%-28%) by 1 ml injector and inject the ammonia into the tampon with the same weight thereof, and then quickly put the injected tampon together with the white rice into an inverse 500 ml beaker, and then record the number of animal coughing within 3 minutes. The obvious decrease of cough frequency is regarded as the index of the antitussive effect.

patients with diabetes = assay: Clinical curative effect of DHD on diabetes (diabetes kidney disease patients); format: in vivo, human; set-up: Blood glucose at 2 hours after the meal / Fasting blood glucose (FBG): unit not given here
From the text: 1. The standard of selecting patients: All patients with diabetes are in accordance with WHO diabetes diagnostic criteria. Select 18 cases of urine protein, renal function and two groups with the matching developing speeds of renal function injury within one year from diabetes kidney disease patients (DN). […] Once patients are selected, other drugs related to sugar, fat metabolism are stopped administering, diet control and proper exercise therapy are continued. Test fasting blood glucose and blood glucose at 2 hours after the meal every week. After stabilizing the blood glucose, experimental treatment is performed, the treatment group uses DHD, once every day, four hours every time. […] 3. Results: By statistic treatment, clinical curative effects between the two groups are tested by Ridit, and observation indexes between the two groups and within every group before and after treatment are tested by t-test. Marked: […] Effective: […]

[1] = tested on: gastric and duodenal ulcer patients; assay: Clinical observation of NHD on gastric and duodenal ulcer patients; format: in vivo, human
Experimental: 1. Case selection: Selected 80 inpatients are in accordance with gastric and duodenal ulcer diagnostic criteria. The inpatients are randomly divided into two groups. […] 2. Method of treatment: […] The course of treatment is one month. After two months, review by gastroscopy. Omeprazole is used in the control group by oral administration once every day, one piece every time (20 mg), the course of treatment is the same. 3. Observation items: ulcer surface (regarding results tested by gastroscope as standard), partial clinical symptoms (such as abdominal pain and acid reflux) 4. Curative effect evaluation standard: referring to Chinese national diagnostic curative effect standard.

[2] = tested on: male Prostatic hyperplasia patients; assay: Clinical curative effects of PHD on male Prostatic hyperplasia; format: in vivo, human
From the text: Case selection: 72 patients, male, wherein 53 cases with the age of 60-69 years old, 16 cases with the age of 70-79 years old, 3 cases with the age of 80-89 years old. The longest course of disease is 11 years, the shortest is 3 months. There are 6 cases with the course of disease smaller than one year, 48 cases with the course of disease in the range of 1-4 years, 14 cases with the course of disease in the range of 5-10 years, 4 cases with the course of disease bigger than 10 years. There are 12 cases with prostate enlargement I-degree, 44 cases with prostate enlargement II-degree, and 16 cases with prostate enlargement III-degree. There are 4 cases integrated with bladder stones, and 6 cases with urinary infection.
Observation method: based on the ages of patients, course of disease and state of illness, patients are divided into two groups.
(1) The control group comprises 36 patients, administered with finasteride tablet, one every time, one time every day, oral administration.
(2) The treatment group comprises 36 patients, administered with PHD, four hours every time, one time every day, hanging.
Observe patients' symptoms before and after administration which mainly includes frequent urination at night, difficult urinating, urination becoming thinner, drop after urination, micturition pain, and urgent urination. No, light, medium, heavy symptoms are scored 0, 1, 2, 3 respectively. Observe integral changes before and after treatment. Rectal touch and B ultra examination are made to observe the recovery condition of prostate enlargement.
Based on the ratio of the integral difference of local symptom before administration to that after administration and the condition of prostate recovery, curative effects are evaluated. If healing, the integral ratio is 1, and prostate enlargement is back to normal. […] If effective, the integral ratio is in the range of ⅔ to ⅓, and prostate enlargement is improved. If invalid, the integral ration is smaller than ⅓, and prostate enlargement has no change.

[3] = 12 weeks, DHD versus Gliquidone
[4] = of healed cases (14 NHD, 6 Omeprazole), time unit not given
[5] = treat group 50 cases NHD, control group 30 cases Omeprazole 20 mg oral
[6] = 36 cases per group, PHD versus finasteride tablet

Oc1ncnc2[nH]ncc12 [Allopurinol]
Serum uric acid level of mice (mg/100 ml) (hyperuricemia mice; hyperuricemia mice, 2 hours after the last using, 4 days, Allopurinol dosage 10): 7.46 ± 0.17 mg/100 ml | effect on serum uric acid level of normal mice (hyperuricemia mice; normal mice, in words): can reduce the serum uric acid level of normal mice

COc1ccc2c3c1O[C@H]1[C@@H](O)C=C[C@H]4[C@@H](C2)N(C)CC[C@@]341 [Codeine phosphate]
inhibition at 4 mg/kg (Kunming mice; Mus musculus, po, read-out: Cough inhibition Rate (%)): 67.3% | Cough Frequency (Kunming mice; number of coughing within 3 minutes): 11.2 ± 4.8

COc1ccc2c(c1)C(=O)N(CCc1ccc(S(=O)(=O)NC(=O)NC3CCCCC3)cc1)C(=O)C2(C)C [Gliquidone]
Blood glucose at 2 hours after the meal: Effective (cases) (patients with diabetes; [3]): 6 | Blood glucose at 2 hours after the meal: Invalid (cases) (patients with diabetes; [3]): 0 | Blood glucose at 2 hours after the meal: Marked (cases) (patients with diabetes; [3]): 4 | Blood glucose at 2 hours after the meal: Total efficient rate (patients with diabetes; [3]): 100.0 | Fasting blood glucose (FBG): Effective (cases) (patients with diabetes; [3]): 6 | Fasting blood glucose (FBG): Invalid (cases) (patients with diabetes; [3]): 1 | Fasting blood glucose (FBG): Total efficient rate (patients with diabetes; [3]): 90.0 | Fasting blood glucose (FBG): Marked (cases) (patients with diabetes; 12 weeks, treatment group DHD four hours/day, control group Gliquidone 30 mg increased to 90 mg): 3 | Blood glucose at 2 hours after the meal (patients with diabetes; After treating 2 weeks): 17.48 | Fasting blood glucose (FBG) (patients with diabetes; After treating 2 weeks): 9.99 | Blood glucose at 2 hours after the meal (patients with diabetes; After treating 4 weeks): 12.77 | Fasting blood glucose (FBG) (patients with diabetes; After treating 4 weeks): 9.27 | Blood glucose at 2 hours after the meal (patients with diabetes; After treating 8 weeks): 10.07 | Fasting blood glucose (FBG) (patients with diabetes; After treating 8 weeks): 8.43 | BUN (patients with diabetes; After treating (12 weeks)): 9.2 ± 0.6 mmol/L | Blood glucose at 2 hours after the meal (patients with diabetes; After treating (12 weeks)): 9.21 | Fasting blood glucose (FBG) (patients with diabetes; After treating (12 weeks)): 7.62 | Scr (patients with diabetes; After treating (12 weeks)): 250.9 ± 49.3 µmol/L | Urine protein (patients with diabetes; After treating (12 weeks)): 6.0 ± 2.7 | BUN (patients with diabetes; Before treating): 9.5 ± 0.7 mmol/L | Blood glucose at 2 hours after the meal (patients with diabetes; Before treating): 14.79 | Fasting blood glucose (FBG) (patients with diabetes; Before treating): 10.72 | Scr (patients with diabetes; Before treating): 251.3 ± 54.6 µmol/L | Urine protein (patients with diabetes; Before treating): 6.2 ± 2.5

COc1ccc2[nH]c([S+]([O-])Cc3ncc(C)c(OC)c3C)nc2c1 (centres unmarked) [Omeprazole]
needed time for curing diseases: cases healed at course of treatment 6 [1, 4]: 0 | needed time for curing diseases: cases healed at course of treatment 7 [1, 4]: 0 | needed time for curing diseases: cases healed at course of treatment 8 [1, 4]: 2 | needed time for curing diseases: cases healed at course of treatment 9 [1, 4]: 4 | Healing (cases) ([1]; treat group 50 cases NHD hung 5 hours/day, control group 30 cases Omeprazole 20 mg oral once daily): 6 | Invalid effect (cases) [1, 5]: 5 | Marked effect (cases) [1, 5]: 6 | Total efficient rate (%) [1, 5]: 83.3% | Turning better (cases) [1, 5]: 13

CC(C)(C)NC(=O)[C@H]1CC[C@H]2[C@@H]3CC[C@H]4NC(=O)C=C[C@]4(C)[C@H]3CC[C@]12C [finasteride tablet, finasteride]
Effective (cases) [2, 6]: 6 | Invalid (cases) [2, 6]: 16 | Marked (cases) [2, 6]: 10 | Total efficient rate [2, 6]: 52.78% | total effective cases [2, 6]: 26 cases | Healing (cases) ([2]; 36 cases per group, treatment PHD hung four hours daily, control finasteride tablet oral once daily): 4 | Integral values of local symptoms before and after administration ([2]; in words, control P>0.05, treatment P<0.001): significant differences
